Results: ChEMBL document CHEMBL1121978, “Ultra-short-acting beta-adrenergic receptor blocking agents. 2. (Aryloxy)propanolamines containing esters on the aryl function” (J Med Chem, 1982)
The source made the active and inactive calls. The rule behind the calls is not given here.

Tests used:
[1] = target: Beta-1 adrenergic receptor (Canis lupus familiaris) (UniProt P79148)
[2] = target: Beta-1 adrenergic receptor (Canis lupus familiaris) (UniProt P79148); remark: listed apart in the source
[3] = target: Beta-1 adrenergic receptor (Cavia porcellus) (UniProt B0FL73); assay: Cardioselectivity expressed as antilog of pA2 (atria)-pA2 (trachea).
[4] = target: Beta-1 adrenergic receptor (Cavia porcellus, UniProt B0FL73); assay: The compound was tested in vitro for its ability to block Beta-1 adrenergic receptor in guinea pig right atria preparation; conditions: read-out: pA2 (converted)
[5] = target: Beta-1 adrenergic receptor (Cavia porcellus) (UniProt B0FL73)
Description: The compound was tested in vivo for its ability to block beta-1-adrenergic receptor in guinea pig right atria preparation at a duration of 3h

[6] = target: Beta-1 adrenergic receptor (Cavia porcellus) (UniProt B0FL73); assay: The compound was tested in vitro for its ability to block Beta-1 adrenergic receptor in guinea pig right atria preparation at 10e-5M; inactive

Sequence of Beta-1 adrenergic receptor (Cavia porcellus) (B0FL73 1-467): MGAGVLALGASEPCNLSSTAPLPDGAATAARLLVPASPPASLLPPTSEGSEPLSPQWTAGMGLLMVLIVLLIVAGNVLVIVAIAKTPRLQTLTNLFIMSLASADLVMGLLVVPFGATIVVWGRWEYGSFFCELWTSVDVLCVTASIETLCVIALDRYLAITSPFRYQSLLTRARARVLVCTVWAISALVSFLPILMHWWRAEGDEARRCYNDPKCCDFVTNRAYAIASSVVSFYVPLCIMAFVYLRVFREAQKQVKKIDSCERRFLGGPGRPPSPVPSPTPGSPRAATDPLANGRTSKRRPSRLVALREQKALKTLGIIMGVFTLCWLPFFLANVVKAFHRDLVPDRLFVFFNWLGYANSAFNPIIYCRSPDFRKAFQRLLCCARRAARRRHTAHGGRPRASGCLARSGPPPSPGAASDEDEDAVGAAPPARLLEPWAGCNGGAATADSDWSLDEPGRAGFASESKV
Sequence of Beta-1 adrenergic receptor (B0FL73 whole entry): as the sequence (B0FL73 1-467) above

Compound	In vivo duration [1] [min]	In vivo duration [2] [min]	further results
COC(=O)c1ccccc1OCC(O)CNC(C)C (stereo not drawn)	15	15	–
COC(=O)c1ccccc1OCC(O)CNC(C)(C)C (stereo not drawn)	12	22	–
CCOC(=O)CCc1ccc(OCC(O)CNC(C)C)cc1 (stereo not drawn)	–	43	Cardio selectivity [3]: 30
COC(=O)CCc1ccc(OCC(O)CNCCc2ccc(OC)c(OC)c2)cc1 (stereo not drawn)	–	14	Cardio selectivity [3]: 20
COC(=O)CCc1ccccc1OCC(O)CNC(C)C (stereo not drawn)	–	29	–
COC(=O)c1ccc(OCC(O)CNC(C)C)cc1 (stereo not drawn)	31	–	–
COC(=O)c1ccccc1OCC(O)CNCCc1ccc(OC)c(OC)c1 (stereo not drawn)	–	30	–
C=COC(=O)c1cccc(OCC(O)CNC(C)C)c1 (stereo not drawn)	–	–	Kb [4]: 126 nM; In vivo duration [5]: > 60 min
CCOC(=O)c1ccccc1OCC(O)CNC(C)(C)C (stereo not drawn)	–	38	–
CCOC(=O)c1ccc(OCC(O)CNC(C)C)cc1 (stereo not drawn)	56	–	–
CC(=O)Nc1ccc(OCC(O)CNC(C)C)cc1 (stereo not drawn)	61	–	–
COC(=O)c1ccc(OCC(O)CNC(C)(C)C)cc1 (stereo not drawn)	22	–	–
COC(=O)CCCc1ccc(OCC(O)CNC(C)C)cc1 (stereo not drawn)	40	> 60	Cardio selectivity [3]: 13
C=COC(=O)c1ccccc1OCC(O)CNC(C)C (stereo not drawn)	–	–	Kb [4]: 12.6 nM
CC(C)NCC(O)COc1ccc(C(=O)O)cc1 (stereo not drawn)	–	–	pA2 [6]: inactive
COC(=O)c1ccccc1OCC(O)CNC(C)(C)CO (stereo not drawn)	–	55	–
COC(=O)CCc1ccc(OCC(O)CNC(C)(C)C)cc1 (stereo not drawn)	–	15	–
COC(=O)CCc1ccc(OCC(O)CNCCCc2ccccc2)cc1 (stereo not drawn)	–	–	Cardio selectivity [3]: 20
COC(=O)/C=C/c1ccc(OCC(O)CNC(C)C)cc1 (stereo not drawn)	–	> 60	Cardio selectivity [3]: 18
COC(=O)Cc1ccc(OCC(O)CNC(C)C)cc1 (stereo not drawn)	20	> 60	–
COC(=O)CCc1ccc(OCC(O)CNC(C)C)cc1 (stereo not drawn)	12	12	–
C=COC(=O)c1ccc(OCC(O)CNC(C)C)cc1 (stereo not drawn)	–	–	Kb [4]: 501 nM; Cardio selectivity [3]: 5
